In patent US4443246A, “Herbicidal pyridyl-ethoxy-phenyl urea derivatives” (Takeda Chemical Industries, Ltd., priority 1981, dated 1984):

Columns and labels:
weeds = settings: prior art, in words; cited from earlier work
Toxicity to fishes (TLm) = settings: in vivo
[1] = Toxicity to mammals (LD50, orally in mice); settings: mouse, in vivo, po
Corn = test: Phytotoxicity to crop (corn), foliar pot test; format: in vivo, Zea mays L.; settings: 14 days after foliar spray
Method: 900 cm^2 -Plastic pots are packed with crop-filed soil and sown with seeds of Red root pigweed (Amaranthus retroflexus L.), Purple lambsquarter (Chenopodium album (L.) var. centrorubrum Makino), Oriental smartweed, (Polygonum Blumei Meisn.), Common purslane (Portulaca oleracea L.), Tall morningglory (Ipomoea purpurea (L.) Roth), Cocklebur (Xanthium strumarium L.), Velvetleaf (Abutilon theophrasti Medic.), Jimson weed (Datura stramonium L.) and Corn (Zea mays L.)
These test plants are grown in a greenhouse for 9-14 days. When the true leaves sprouted, these pots are placed in a chamber of 1000 cm^2, where 10 ml each of solutions each containing a given weight of the test compound is applied to each plant from the above with a small spraygun so that each drug solution is applied to leaves and stalks of the respective plants homogeneously. These pots are then left standing in the greenhouse for 14 days. Then, the above-ground portions of each of the thus treated plants, which have remained non-withering, are collected by cutting, followed by weighing while they are fresh.
The non-withering ratio is calculated on the basis of the corresponding weight of the control (non-treated) plants as 100%. The phytotoxicity and herbicidal effect of the test compound are evaluated on the basis of the following criteria. The test solution is prepared by dissolving the test compound of a given weight in 1 ml of acetone containing 1% of a surface-active agent, Tween 20® (Kao Atlas Co., Japan), which is diluted with deionized water to make the total volume to be 10 ml.
To dissolve or disperse the test compound completely in the acetone, stirring by means of super-sonic wave is employed.
Phytotoxicity to crop (corn) is indicated with the following indexes:
(The indexes 0 and 1 to crop denote the test compound can be practically applicable to crop.)

For `CN(C)C(=O)Nc1ccc(Oc2ccc(Cl)cc2)cc1` [chloroxuron, N'-[4-(4-chlorophenoxy)phenyl]-N,N-dimethylurea], the herbicidal activity (weeds) is listed as “have herbicidal activity”.
For `Cc1cccc(CCOc2ccc(NC(=O)N(C)C)cc2)n1` [Compound No. 1, N,N-dimethyl-N'-[4-[2-(6-methyl-2-pyridyl)ethoxy]phenyl]urea], the LC50 (Toxicity to fishes (TLm)) was at least 10 µg/mL, the LD50 [1] was at least 300 mg/kg and the “Phytotoxicity Corn” value (Corn; Application rate 10) was 0 (None 0). The “Phytotoxicity Corn” value (Corn; Application rate 20) was 0 (None 0).
With `CCc1ccc(CCOc2ccc(NC(=O)N(C)C)cc2)nc1` [Compound No. 2, N,N-dimethyl-N'-[4-[2-(5-ethyl-2-pyridyl)ethoxy]phenyl]urea] the “Phytotoxicity Corn” value (Corn; Application rate 10) was 1 (Negligible 0.1 to 12.5) and the “Phytotoxicity Corn” value (Corn; Application rate 20) was 1 (Negligible 0.1 to 12.5).
For `CON(C)C(=O)Nc1ccc(OCCc2cccc(C)n2)cc1` [Compound No. 3, N-methoxy-N-methyl-N'-[4-[2-(6-methyl-2-pyridyl)ethoxy]phenyl]urea], the “Phytotoxicity Corn” value (Corn; Application rate 10) was 1 (Negligible 0.1 to 12.5) and the “Phytotoxicity Corn” value (Corn; Application rate 20) was 1 (Negligible 0.1 to 12.5).
